Source: publication PMC4669722, “Antitumour potential of BPT: a dual inhibitor of cdk4 and tubulin polymerization” (Cell Death & Disease, 2015)
“Also recorded” adds a separate entry of the source.

Tests used:
[1] = target: Cdk7-cyclin H (Homo sapiens, UniProt P50613); experiment: Kinase profiling (Millipore), Cdk7-cyclin H; format: biochemical
Protocol: (§1) The in vitro kinase assays for testing against Cdk4-cyclin D1, Cdk2-cyclin A, Cdk1-cyclin B1 and Cdk9-cyclin T1 were performed in-house. The methodology and results have been reported previously.[20], [30], [31], [32], [45] The kinase profiling for 58 representative kinases was carrried out commercially at Millipore Bioscience Division, Livingston, UK.

[2] = target: Cdk6-cyclin D1 (Homo sapiens, UniProt Q00534); experiment: Kinase profiling (Millipore), Cdk6-cyclin D1; format: biochemical
Protocol: as §1

[3] = test system: p53+ A549 and LS174T cells; experiment: Western blot of cell cycle proteins in p53+ cells; format: cell-based, human; conditions: IC50 concentration, 24 h
Protocol: A549, LS174T and MiaPaCa cells were seeded in 25 cm^2 tissue culture flasks in the complete growth medium. […] Cells were harvested by trypsinization, washed in ice-cold PBS and then lysed in buffer (Sigma-Aldrich; cat. no. C-2978) containing protease inhibitor cocktail (Sigma-Aldrich; cat. no. P8340). The lysates were centrifuged at 14 000 r.p.m. (revolutions per minute) for 10 min at 4 °C and the total protein concentrations were estimated in the clear supernatants using the Bradford method. Equal amounts of protein (40 μg) were loaded and electrophoresed on 10% SDS-polyacrylamide gels and blotted on Immobilon-P Transfer Membrane (Millipore; cat. no.IPVH20200). The blots were probed with respective primary antibodies (at 4 °C, overnight) at the following dilutions: cdc2 (New England Biolabs, Hitchin, UK; cat. no. 9110) at 1 : 1000 to detect Cdk1; cyclin B1 (CRUK, London, UK; cat. no. V152) at 1 : 1500 dilution to detect cyclin B1; Pab 1801 (Santa Cruz Biotechnology, Heidelberg, Germany; cat. no. sc-98) at 1 : 500 dilution to detect p53; N-20 (Santa Cruz Biotechnology; cat. no. sc-469) at 1 : 500 dilution to detect p21; C-19 (Santa Cruz Biotechnology; cat. no. sc-528) at 1 : 250 dilution to detect p27; AC-40 (Sigma-Aldrich; cat. no. A4700) at 1 : 2000 dilution to detect actin. Appropriate secondary antibodies conjugated with horseradish peroxidase were used and the protein bands were visualized by chemiluminescence using the ECL Kit (Santa Cruz Biotechnology; cat. no. sc-2048).

[4] = target: Cdk4-cyclin D1 (Homo sapiens, UniProt P11802); experiment: In vitro kinase assay, Cdk4-cyclin D1 (in-house); format: biochemical
Protocol: as §1

[5] = target: Cdk9-cyclin T1 (Homo sapiens, UniProt P50750); experiment: In vitro kinase assay, Cdk9-cyclin T1 (in-house); format: biochemical; conditions: three independent experiments; read-out: IC50 (mean±S.D.), Cdk9-cyclin T1
Protocol: as §1

[6] = test system: NCI-H358 (NSCLC; p53 null, pRb null); experiment: Cell proliferation (MTT) assay, NCI-H358; format: cell-based; conditions: Homo sapiens, 48 h, read-out: IC50 cell growth inhibition, NCI-H358
Protocol: (§2) All 10 human cancer cell lines were maintained at 37 °C in 5% CO2 in RPMI-1640 medium, supplemented with 10% foetal calf serum and 100 μg/ml normocin. The 10 cancer cell lines used for screening were all obtained from ATCC (Manassas, VA, USA); they were the NSCLC (a form of cancer that is resistant to chemotherapy) lines: NCI-H460 (pRb^+, p53^+), A549 (pRb^+, p53^+), Calu-1 (pRb^+, p53-null), NCI-H1299 (pRb^+, p53-null), NCI-H358 (pRb-null, p53-null); the colon cancer line LS174T (pRb^+, p53^+); the prostate cancer line PC-3 (pRb^+, p53-null); the pancreatic cancer line MiaPaca (pRb^+, p53-mutant). The genotypes within brackets indicate the status of the tumour suppressor proteins pRb and p53. The mouse embryonic normal hepatic cell line (BNL CL2) and its SV40 large T-antigen-transformed counterpart cell line (BNL SV A.8) were also purchased from ATCC. The large T-antigen inactivates the tumour suppressor proteins p53 and pRb. The detailed procedure of cell proliferation (MTT) assay and IC50 determination was described previously.[32]

[7] = target: MEK1 (Homo sapiens, UniProt Q02750); experiment: Kinase profiling (Millipore), MEK1; format: biochemical
Protocol: as §1

[8] = test system: A549 (NSCLC; p53+, pRb+); experiment: Cell proliferation (MTT) assay, A549; format: cell-based; conditions: Homo sapiens, 48 h, read-out: IC50 cell growth inhibition, A549
Protocol: as §2

[9] = test system: PC-3 (prostate; p53 null, pRb+); experiment: Cell proliferation (MTT) assay, PC-3; format: cell-based; conditions: Homo sapiens, 48 h, read-out: IC50 cell growth inhibition, PC-3
Protocol: as §2

[10] = target: PDGFR; experiment: Kinase profiling (Millipore), PDGFR; format: biochemical
Protocol: as §1

[11] = target: Cdk1-cyclin B1 (Homo sapiens, UniProt P06493); experiment: In vitro kinase assay, Cdk1-cyclin B1 (in-house); format: biochemical; conditions: three independent experiments; read-out: IC50 (mean±S.D.), Cdk1-cyclin B1
Protocol: as §1

[12] = Body weight measurements in xenograft models; format: in vivo, SCID mice
Protocol: The body weights of animals in different treatment and control groups were monitored by taking the measurements daily during the treatment schedule. By considering the body weight at the start of the treatment as 100%, the percent weight loss was calculated on subsequent days of treatments.

[13] = test system: pBluescript plasmid DNA; experiment: EtBr displacement assay; format: binding; conditions: 1.3 μM EtBr, pH 7.4
Protocol: The assays were performed in a 96-well plate with clear bottom (Costar, Washington, DC, USA). The assay involved the addition of 10 μl of 10 × concentrated stock solution of compounds (dissolved in DMSO and further diluted in EtBr displacement assay buffer) to 90 μl of reaction mixture containing 6 μg of purified pBlueScript DNA and 1.3 μM EtBr in EtBr displacement assay buffer with final pH 7.4. Equivalent amounts of DMSO were added to the vehicle controls. In addition to control samples (DNA+EtBr), test samples (DNA+EtBr+test compounds), blank 1 (EtBr only), blank 2 (DNA only), wells containing DNA and compound were also prepared to test any change in the background fluorescence readings. The reduction in relative fluorescence counts was monitored ([…]) and recorded after 1 min equilibration time. Fascaplysin and actinomycin D, which are known to intercalate d-s DNA, were used as standard compounds in assay. The mean control and test readings were corrected by subtracting blank readings. The percentage fluorescence in the test samples in reaction with control samples was calculated by using following formula: […]

[14] = target: EGFR (Homo sapiens, UniProt P00533); experiment: Kinase profiling (Millipore), EGFR; format: biochemical
Protocol: as §1

Sequence of Cdk4-cyclin D1 (P11802 whole entry): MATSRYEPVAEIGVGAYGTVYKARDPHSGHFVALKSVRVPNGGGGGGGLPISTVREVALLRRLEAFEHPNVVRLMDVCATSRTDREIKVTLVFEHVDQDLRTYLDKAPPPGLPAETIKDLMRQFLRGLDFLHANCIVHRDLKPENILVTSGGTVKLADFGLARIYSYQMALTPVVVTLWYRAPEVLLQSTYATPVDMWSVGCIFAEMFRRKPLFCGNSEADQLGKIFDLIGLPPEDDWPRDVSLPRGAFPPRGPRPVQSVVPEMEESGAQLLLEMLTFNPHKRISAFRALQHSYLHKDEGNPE
Sequence of Cdk4-cyclin D1 (P24385 whole entry partner): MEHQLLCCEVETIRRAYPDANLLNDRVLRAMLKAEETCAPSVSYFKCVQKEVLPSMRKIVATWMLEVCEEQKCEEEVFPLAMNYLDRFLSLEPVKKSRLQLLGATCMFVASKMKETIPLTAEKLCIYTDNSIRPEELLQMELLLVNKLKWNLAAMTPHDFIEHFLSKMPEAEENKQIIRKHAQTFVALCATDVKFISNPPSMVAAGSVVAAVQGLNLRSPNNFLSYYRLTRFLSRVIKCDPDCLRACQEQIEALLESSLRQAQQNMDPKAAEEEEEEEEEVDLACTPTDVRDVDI
Sequence of Cdk7-cyclin H (P50613 whole entry): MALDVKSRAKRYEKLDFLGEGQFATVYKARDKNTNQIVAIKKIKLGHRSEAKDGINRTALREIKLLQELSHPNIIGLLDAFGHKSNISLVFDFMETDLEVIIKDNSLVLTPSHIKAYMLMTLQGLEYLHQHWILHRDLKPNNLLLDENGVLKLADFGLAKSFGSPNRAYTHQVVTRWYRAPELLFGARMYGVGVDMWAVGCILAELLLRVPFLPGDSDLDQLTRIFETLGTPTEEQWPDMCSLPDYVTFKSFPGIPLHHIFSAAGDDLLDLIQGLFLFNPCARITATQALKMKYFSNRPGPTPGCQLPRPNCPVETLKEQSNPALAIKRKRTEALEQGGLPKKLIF
Sequence of Cdk7-cyclin H (P51946 whole entry partner): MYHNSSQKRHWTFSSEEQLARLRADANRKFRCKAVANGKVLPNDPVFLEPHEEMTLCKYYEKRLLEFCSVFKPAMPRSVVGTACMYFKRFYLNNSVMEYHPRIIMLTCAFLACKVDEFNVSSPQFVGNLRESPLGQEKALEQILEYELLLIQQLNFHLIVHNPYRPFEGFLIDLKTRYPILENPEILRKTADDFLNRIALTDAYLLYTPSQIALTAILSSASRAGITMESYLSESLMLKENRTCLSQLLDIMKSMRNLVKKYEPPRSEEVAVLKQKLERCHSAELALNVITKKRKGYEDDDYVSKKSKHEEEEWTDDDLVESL
Sequence of Cdk7-cyclin H (P51948 whole entry partner): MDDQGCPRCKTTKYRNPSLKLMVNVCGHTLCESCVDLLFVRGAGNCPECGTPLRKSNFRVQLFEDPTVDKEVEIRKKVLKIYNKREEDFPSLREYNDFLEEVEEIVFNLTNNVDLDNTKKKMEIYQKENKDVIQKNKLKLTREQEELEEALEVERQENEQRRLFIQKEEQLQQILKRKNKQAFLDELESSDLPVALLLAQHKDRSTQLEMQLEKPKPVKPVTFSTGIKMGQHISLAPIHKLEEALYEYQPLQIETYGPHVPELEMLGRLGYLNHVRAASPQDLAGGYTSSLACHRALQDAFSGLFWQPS
Sequence of EGFR (P00533 25-1210): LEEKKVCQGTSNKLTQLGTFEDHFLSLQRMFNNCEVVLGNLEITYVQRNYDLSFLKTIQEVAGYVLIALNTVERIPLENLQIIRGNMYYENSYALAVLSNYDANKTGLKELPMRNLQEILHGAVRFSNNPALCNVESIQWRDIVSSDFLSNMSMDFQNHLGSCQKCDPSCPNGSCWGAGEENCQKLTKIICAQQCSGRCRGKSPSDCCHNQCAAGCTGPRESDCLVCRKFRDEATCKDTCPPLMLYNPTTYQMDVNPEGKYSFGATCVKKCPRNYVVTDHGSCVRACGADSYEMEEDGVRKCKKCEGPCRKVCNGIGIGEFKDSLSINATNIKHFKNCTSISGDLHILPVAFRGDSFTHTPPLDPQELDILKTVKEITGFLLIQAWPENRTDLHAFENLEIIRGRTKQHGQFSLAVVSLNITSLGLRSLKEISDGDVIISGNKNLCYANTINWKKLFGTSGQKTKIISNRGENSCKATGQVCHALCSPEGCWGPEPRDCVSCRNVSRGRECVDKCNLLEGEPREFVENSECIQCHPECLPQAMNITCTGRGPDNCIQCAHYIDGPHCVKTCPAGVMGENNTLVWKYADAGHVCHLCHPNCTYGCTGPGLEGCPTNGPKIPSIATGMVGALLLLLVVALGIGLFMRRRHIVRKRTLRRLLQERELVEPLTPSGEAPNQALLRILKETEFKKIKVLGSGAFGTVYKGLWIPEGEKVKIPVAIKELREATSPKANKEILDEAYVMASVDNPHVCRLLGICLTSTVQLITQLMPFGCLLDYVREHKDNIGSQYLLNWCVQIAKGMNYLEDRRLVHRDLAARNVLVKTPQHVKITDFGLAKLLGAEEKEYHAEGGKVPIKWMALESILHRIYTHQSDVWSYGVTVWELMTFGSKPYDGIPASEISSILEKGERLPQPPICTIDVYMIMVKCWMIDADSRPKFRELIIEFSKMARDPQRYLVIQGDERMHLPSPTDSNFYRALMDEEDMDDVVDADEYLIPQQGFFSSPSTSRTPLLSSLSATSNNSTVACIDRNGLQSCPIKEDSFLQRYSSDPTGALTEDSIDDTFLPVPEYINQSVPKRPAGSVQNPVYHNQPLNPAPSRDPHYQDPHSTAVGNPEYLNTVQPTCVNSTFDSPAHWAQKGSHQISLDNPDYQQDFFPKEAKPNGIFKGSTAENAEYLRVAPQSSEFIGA
Sequence of Cdk6-cyclin D1 (P24385 whole entry): as the sequence (P24385 whole entry partner) above
Sequence of Cdk6-cyclin D1 (Q00534 whole entry): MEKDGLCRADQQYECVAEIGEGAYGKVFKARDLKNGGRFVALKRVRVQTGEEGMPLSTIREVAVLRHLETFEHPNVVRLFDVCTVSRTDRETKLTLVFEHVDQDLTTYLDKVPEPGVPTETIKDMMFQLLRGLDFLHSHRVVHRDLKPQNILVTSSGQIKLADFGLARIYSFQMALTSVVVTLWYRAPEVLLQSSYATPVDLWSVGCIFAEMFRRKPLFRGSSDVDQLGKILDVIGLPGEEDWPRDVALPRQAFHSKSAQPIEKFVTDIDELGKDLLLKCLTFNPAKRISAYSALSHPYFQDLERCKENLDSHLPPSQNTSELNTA
Sequence of Cdk1-cyclin B1 (P06493 whole entry): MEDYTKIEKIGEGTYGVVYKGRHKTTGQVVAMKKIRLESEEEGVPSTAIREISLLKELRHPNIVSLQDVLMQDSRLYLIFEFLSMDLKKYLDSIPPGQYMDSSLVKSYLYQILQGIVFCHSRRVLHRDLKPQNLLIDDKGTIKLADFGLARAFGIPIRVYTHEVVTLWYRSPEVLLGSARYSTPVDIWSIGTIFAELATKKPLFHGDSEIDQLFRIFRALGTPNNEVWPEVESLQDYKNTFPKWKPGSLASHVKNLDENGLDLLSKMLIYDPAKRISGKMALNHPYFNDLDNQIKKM
Sequence of Cdk1-cyclin B1 (P14635 whole entry partner): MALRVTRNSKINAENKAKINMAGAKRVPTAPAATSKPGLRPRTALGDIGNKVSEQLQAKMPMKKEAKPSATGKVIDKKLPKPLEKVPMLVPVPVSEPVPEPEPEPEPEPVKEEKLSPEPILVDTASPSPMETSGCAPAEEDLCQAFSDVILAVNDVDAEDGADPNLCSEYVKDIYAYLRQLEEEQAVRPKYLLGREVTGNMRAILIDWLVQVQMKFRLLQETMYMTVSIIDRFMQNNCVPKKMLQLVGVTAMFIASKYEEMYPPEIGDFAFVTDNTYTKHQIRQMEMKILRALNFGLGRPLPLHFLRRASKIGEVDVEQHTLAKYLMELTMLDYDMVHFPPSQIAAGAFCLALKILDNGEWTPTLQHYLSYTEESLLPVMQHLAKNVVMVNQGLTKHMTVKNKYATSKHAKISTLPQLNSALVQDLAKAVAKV
Sequence of Cdk9-cyclin T1 (P50750 whole entry): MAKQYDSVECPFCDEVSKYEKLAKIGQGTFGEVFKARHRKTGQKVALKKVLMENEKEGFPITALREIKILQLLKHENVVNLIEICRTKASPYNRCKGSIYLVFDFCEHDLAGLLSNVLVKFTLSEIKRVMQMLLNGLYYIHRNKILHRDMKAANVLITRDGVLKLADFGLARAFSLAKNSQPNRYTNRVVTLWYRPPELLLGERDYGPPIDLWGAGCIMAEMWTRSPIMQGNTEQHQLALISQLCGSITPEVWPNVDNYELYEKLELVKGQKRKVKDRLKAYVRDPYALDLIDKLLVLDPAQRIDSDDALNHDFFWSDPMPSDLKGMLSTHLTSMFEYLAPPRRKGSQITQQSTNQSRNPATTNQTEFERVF
Sequence of Cdk9-cyclin T1 (O60563 whole entry partner): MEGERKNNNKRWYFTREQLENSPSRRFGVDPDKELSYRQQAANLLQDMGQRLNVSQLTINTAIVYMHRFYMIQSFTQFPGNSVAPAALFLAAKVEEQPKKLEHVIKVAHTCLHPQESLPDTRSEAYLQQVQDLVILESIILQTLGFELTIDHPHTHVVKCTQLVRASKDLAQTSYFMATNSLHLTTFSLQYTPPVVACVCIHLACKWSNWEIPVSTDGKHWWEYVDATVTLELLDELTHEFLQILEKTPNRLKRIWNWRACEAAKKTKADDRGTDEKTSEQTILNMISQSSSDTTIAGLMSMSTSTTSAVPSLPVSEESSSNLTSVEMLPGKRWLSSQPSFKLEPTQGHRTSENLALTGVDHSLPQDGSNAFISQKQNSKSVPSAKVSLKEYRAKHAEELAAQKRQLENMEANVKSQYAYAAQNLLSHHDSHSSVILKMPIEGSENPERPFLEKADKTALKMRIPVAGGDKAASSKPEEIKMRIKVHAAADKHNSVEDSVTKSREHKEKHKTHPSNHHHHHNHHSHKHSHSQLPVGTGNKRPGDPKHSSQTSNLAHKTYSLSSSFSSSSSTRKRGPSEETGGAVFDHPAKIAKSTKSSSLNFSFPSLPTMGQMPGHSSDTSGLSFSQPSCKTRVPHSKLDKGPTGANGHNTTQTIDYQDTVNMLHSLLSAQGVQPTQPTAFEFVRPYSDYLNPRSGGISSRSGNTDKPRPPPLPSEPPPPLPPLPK

In the case of `O=C(c1ccccc1-c1ccccc1)N1CCc2c([nH]c3ccccc23)C1` [BPT, 2-(biphenyl-2-carbonyl)-2,3,4,9-tetrahydro-1H-pyrido[3,4-b]indole], the IC50 [1] is reported as over 10 µM, the IC50 [2] is reported as over 10 µM and the “induction of p53” value [3] is reported as “more than 10 fold”. For the same compound, the “levels of p21CIP1/WAF1 (p21)” value [3] was “increase”, the “levels of p27KIP1 (p27)” value [3] was “elevated” and the “Cdk1 and cyclin B1 protein levels” value ([3]; versus untreated control) was “downregulated”. The “selectivity for Cdk4-cyclin D1 with respect to Cdk2-cyclin A” value [4] was 83 fold, the IC50 ([4]; three independent experiments, read-out: IC50 (mean±S.D.), Cdk4-cyclin D1) was 10 ± 1.2 µM and the IC50 [5] was over 1000 µM. It also gave an IC50 [6] of 0.68 µM, an IC50 [7] of over 10 µM and an IC50 [8] of 0.92 µM. For the same compound, the IC50 [9] was 0.74 µM, the IC50 [10] was over 10 µM and the IC50 [11] was over 500 µM. For the same compound, the “weight loss of treated animals” value ([12]; SCID mice-HCT116 tumour model, 100 mpk, of starting weight) was under 10%, the “weight loss of treated animals” value ([12]; both tumour models (HCT-116 and NCI-H460)) was “statistically insignificant weight loss” and the “EtBr displacement from DNA” value [13] was “incapable of displacing; also recorded: does not displace ethidium bromide; also recorded: No EtBr displacement up to 100 μM ^a”. For the same compound, the IC50 [14] was over 10 µM.
